In patent publication US5776925A, “Methods for cancer chemosensitization” (Pharmacyclics, Inc., priority 1996, dated 1998):

Legend:
EMT6 tumors [1] = test system: EMT6 tumors
EMT6 tumors [2] = assay: in vivo chemosensitization of cyclophosphamide, subcutaneous EMT6 tumors in Balb/c mice; set-up: species or system murine (Balb/c mice); details: cyclophosphamide 40 mg/kg followed by GdT2BET 40 μmol/kg 5 min, or 5 min and 5 hr later; once a week for three weeks
Protocol: In vivo studies were carried out using Balb/c mice with EMT6 tumors implanted subcutaneously as described in Example 2. 4-Hydroxy cyclophosphamide was dissolved at a concentration of 5 mg/mL in 0.9% NaCl. GdT2BET was dissolved at a concentration of 2 mM in 5% mannitol. EMT6 tumors were implanted subcutaneously in the right flanks of Balb/c mice; 9 mice were in each group. Group #1 received cyclophosphamide (CY) at 40 mg/kg; group #2 received cyclophosphamide (CY) at 40 mg/kg followed by GdT2BET at 40 μmol/kg 5 min later; and group #3 received cyclophosphamide (CY) at 40 mg/kg followed by GdT2BET at 40 μmol/kg 5 min and 5 hr later. This protocol was repeated once a week for three weeks.

MES-SA/Dx5 cells = assay: chemosensitization effect in doxorubicin-selected mdr1 variant; type: cell-based, human
MES-SA cells [3] = test system: MES-SA cells
MES-SA cells [4] = type: cell-based, human
[5] = test system: MDR gene in bone marrow cells; details: MDR1-transgenic mouse, simultaneous administration (Mickisch, 1991); cited from earlier work
[6] = in vivo; cited from earlier work

Molecule: CC(=O)[O-].CC(=O)[O-].CCc1c(CC)c2cc3nc(cnc4cc(OCCOCCOCCOC)c(OCCOCCOCCOC)cc4ncc4nc(cc1[n-]2)C(CCCO)=C4C)C(C)=C3CCCO.O.[Gd+3] [GdT2BET]
- cures (no evidence of disease at end of study) (EMT6 tumors [1]; ADR+2GdT2BET group (GdT2BET 5 min and 5 hr post ADR), first study): Two
- cures, further study (EMT6 tumors [1]; ADR+2GdT2BET group, further study): two
- adriamycin cytotoxicity (tumor) (EMT6 tumors [1]; adriamycin 7.5 mg/kg iv followed by GdT2BET 40 μmol/kg iv, once a week for three weeks): clear enhancement of adriamycin cytotoxicity
- p, ADR+2GdT2BET versus ADR only (EMT6 tumors [1]; after day 9, FIG. 1, n=14): < 0.05
- cytotoxicity in further study (EMT6 tumors [1]; further study: ADR+2GdT2BET and three-step texaphyrin/ADR/texaphyrin): enhanced cytotoxicity
- chemosensitization with cyclophosphamide in vivo (EMT6 tumors [2]): little chemosensitization occurred
- mechanism of action of chemosensitization (MES-SA/Dx5 cells; MES-SA/Dx5 compared with MES-SA): P-glycoprotein-independent
- enhancement of cytotoxicity of bleomycin (MES-SA cells [3]): seen at all concentrations of bleomycin tested and at all three concentrations of texaphyrin tested
- percent survival of the cells (MES-SA cells [3]; with bleomycin, 50 μM, 100 μM, and 150 μM GdT2BET, 48 hr): substantially less in the presence of texaphyrin

Molecule: COc1cc([C@@H]2c3cc4c(cc3[C@@H](O[C@@H]3O[C@@H]5CO[C@@H](C)O[C@H]5[C@H](O)[C@H]3O)[C@H]3COC(=O)[C@H]23)OCO4)cc(OC)c1O [etoposide]
- effectiveness in the presence of texaphyrin (MES-SA/Dx5 cells): effective
- effectiveness in the presence of texaphyrin (MES-SA cells [4]): effective
- IC50 difference relative to control / cytotoxicity in the presence of texaphyrin (FIG. 2) (MES-SA cells [3]): enhanced cytotoxicity

Molecule: N.N.[Cl][Pt][Cl] [cisplatin]
- effectiveness in the presence of texaphyrin (MES-SA/Dx5 cells): effective
- effectiveness in the presence of texaphyrin (MES-SA cells [4]): effective

Molecule: COc1ccc(CCN(C)CCCC(C#N)(c2ccc(OC)c(OC)c2)C(C)C)cc1OC (centres unmarked) [verapamil]
- reversal of drug resistance [5]: circumvented in a dose-dependent manner

Molecule: bleomycin
- effectiveness in the presence of texaphyrin (MES-SA/Dx5 cells): effective
- effectiveness in the presence of texaphyrin (MES-SA cells [4]): effective

Molecule: C=C[C@H]1C[N@@]2CC[C@H]1C[C@H]2[C@H](O)c1ccnc2ccc(OC)cc12 [quinine]
- reversal of drug resistance [5]: circumvented in a dose-dependent manner

Molecule: CC/C(=C(\c1ccccc1)c1ccc(OCCN(C)C)cc1)c1ccccc1 [tamoxifen]
- dose-limiting toxicities as chemosensitizer [6]: attributed to the inherent toxicity of the chemosensitizer and not due to enhanced chemotherapy toxicity

Molecule: COc1cccc2c1C(=O)c1c(O)c3c(c(O)c1C2=O)C[C@@](O)(C(=O)CO)C[C@@H]3O[C@H]1C[C@H](N)[C@H](O)[C@H](C)O1 [doxorubicin]
- effectiveness in the presence of texaphyrin (MES-SA/Dx5 cells): effective
- effectiveness in the presence of texaphyrin (MES-SA cells [4]): effective

Molecule: CC(=O)O[C@H]1C(=O)[C@@]2(C)[C@H]([C@H](OC(=O)c3ccccc3)[C@]3(O)C[C@H](OC(=O)[C@H](O)[C@@H](NC(=O)c4ccccc4)c4ccccc4)C(C)=C1C3(C)C)[C@]1(OC(C)=O)CO[C@@H]1C[C@@H]2O [paclitaxel]
- IC50 difference relative to control / cytotoxicity in the presence of texaphyrin (FIG. 2) (MES-SA cells [3]): enhanced cytotoxicity

Molecule: CN1CCN(CCCN2c3ccccc3Sc3ccc(C(F)(F)F)cc32)CC1 [trifluoperazine]
- dose-limiting toxicities as chemosensitizer [6]: attributed to the inherent toxicity of the chemosensitizer and not due to enhanced chemotherapy toxicity
